Test results from patent publication EP4483866A1, “PHARMACEUTICAL COMPOSITIONS FOR THE TREATMENT OR PREVENTION OF CANCER” (Makrolife Biotech GmbH, priority 2023, dated 2025).

Columns and labels:
[1] = system: HepG2, HUVEC, PaCA-2, MDA-MB-231, MCF-7, T24, AsPc-1, Panc-1; test: Cell Viability Assay (MTT), tumor cells with MLB007R1 polarized macrophages; assay type: cell-based, human; details: for cell death: 60 µg/ml, all tumor models
Source text: The following tumor models and cell lines have been used to proof the anti-tumoral properties of the derivatives of the invention: • Diagram A: HepG2 (human liver cancer cells), • Diagram B: HUVEC (human umbilical vein endothelial cells, • Diagram C: PaCA-2 (human pancreatic cancer cells), • Diagram D: MDA-MB-231 (highly aggressive, invasive and poorly differentiated triple-negative human breast cancer cells), • Diagram E: MCF-7 (human breast cancer cells), • Diagram F: T24 (human urinary bladder cancer cells), • Diagram G: AsPc-1 (human pancreatic tumor cells) and • Diagram H: Panc-1 (human pancreatic cancer cells).
In the examples, the resveratrol derivative MLB007R1 was applied at concentrations of 0 µg/ml, 10 µg/ml, 20 µg/ml, 40 µg/ml and 60 µg/ml. As a control, an underivatized agent was used at a concentration of 60 µg/ml. The dead cells were measured in percentage after 0, 12, 24 and 36 hours.
Tumor cell lines HUVEC (human umbilical vein endothelial cells), paCA-2 (human pancreatic cancer cells), MDA-MB-231 (highly aggressive, invasive and poorly differentiated triple-negative breast cancer cells), HepG2 (human liver cancer cells), MCF-7 (breast cancer cells), T24 (human urinary bladder cancer cells), AsPc-1 (human pancreatic tumor cells), Panc-1 (human pancreatic cancer cells) were seeded in 96-well plates ([…]) and divided into two groups: the untreated control group and the active compound resveratrol derivative treated group. Cells in the normal group were incubated under normal growth conditions. In the resveratrol derivative (MLB007R1) treated group, the cells were pre-incubated with differentiated and polarized macrophages (5x10^5 cells/well) for 24 hours with different final concentrations of the resveratrol derivative.
Wells were then washed three times with phosphate buffered saline (PBS) and incubated again for 4 hours with […] RPMI 1640 containing 10% fetal bovine serum. The medium was then replaced with fresh medium serially incubated with different concentrations of the lead compound and incubated with the macrophages, and the plates were incubated for 12, 24, and 36 hours. The medium containing the resveratrol derivative polarized macrophages was replaced every 12 h with freshly prepared medium. Wells were then washed three times with PBS and incubated again for 4 h, adding […] of RPMI 1640 and […] of MTT solution (5 mg/mL). After removal of the culture medium, […] of DMSO was added to dissolve the precipitate, and the absorbance at 570 nm of the resulting solutions was measured using a CODA Automated EIA Analyzer (Bio-Rad Laboratories, Hercules, CA, USA).
The cytotoxicity of the resveratrol derivative compound was evaluated on all cancer cell lines using the MTT method.

HepG2 = details: after 24 hours at 60 µM; cited from earlier work
MCF-7, HUVEC, HepG2 = test: Determination of cell growth and viability (cell count, trypan blue exclusion); assay type: cell-based, human
Description: The tumor models utilized in these experiments are as follows: • Diagram A: MCF-7 (breast cancer cells), • Diagram B: HUVEC (human umbilical vein endothelial cells) and • Diagram C: HepG2 (human liver cancer cells).
Cell growth of an untreated and resveratrol derivative (MLB007R1) treated cell culture was compared. Tumor cell lines (MCF-7 (breast cancer cells), HUVEC (human umbilical vein endothelial cells) and HepG2 (human liver cancer cells)) were cultured in RPMI 1640 cell medium and exposed to 60 µg/ml resveratrol derivative polarized macrophages (10 000/ well). Cell growth, cell cycle disruption and apoptosis were assessed using the trypan blue exclusion method.
Cells were seeded in 24-well tissue culture plates (Falcon) at a concentration of 1×10^5 cells/ml and allowed to adhere overnight. […] Cell growth and viability were assessed every 12 hours. Trypsinized cells were manually counted using a hemocytometer, and cell viability was determined using the trypan blue dye exclusion assay.
Initially, cell number was measured after incubation to 200 000 cells per culture.
The kinetics of cell growth on human MCF-7 breast cancer cells were cultured and measured for 12, 24 and 36 hours in culture medium containing the indicated drug-polarized macrophages. […] Tumor cell viability and cell growth were determined using the trypan blue assay and cell count, respectively. […]

MCF-7 cells = test: Induction of apoptosis assessed by confocal fluorescence microscopy (PI staining); assay type: cell-based, human; details: for cell death: 12h
Description: To confirm the flow cytometry results, the induction of apoptotic cell death by our MLB007R1 compound was examined by confocal fluorescence microscopy. MCF-7 tumor cells were treated with the compound-polarized macrophages (10 000/well) at concentrations of 0, 20, 40, and 60 µg/ml for 12 hours. Induction of apoptotic cell death was accompanied by characteristic ultrastructural changes, such as chromatin condensation, nuclear fragmentation, and collapse of the cell into membrane-bound apoptotic bodies.
Confocal laser scanning microscopy (CLSM). Analysis of apoptosis-like morphological changes was performed on cells grown on coverslips and fixed with 4% paraformaldehyde in PBS (pH 7.4) for 10 minutes at room temperature (RT). After washing in PBS, the samples were stained for nuclear labeling with 2 µg/ml PI and 0.1 mg/ml RNase for 5 minutes at RT. Coverslips were mounted on glass slides in the presence of Glycerol/PBS at a ratio of 4:1 and observed with a LEICA TCS 4D confocal laser scanning microscope equipped with an argon/cripton laser and oil immersion objectives. The excitation and emission wavelengths were 488 and 590 nm, respectively. The images were recorded in pseudocolor.

[2] = system: ovarian cancer cells (cell line A2780); test: Viability and apoptosis of ovarian cancer cells with polarized macrophages (interference light microscopy, PI); assay type: cell-based, human
Description: Diagrams A and C show as a control the cells after treatment with DMSO.
Diagrams B and D show the cells treated with 60 µg/ml MLB007R1 after 12 h.
The present study explores the response of ovarian cancer cells to MLB007R1. MLB007R1 macrophages inhibited growth and induced death in human ovarian cancer cell lines. In a further course, A2780 cells were co-incubated with MLB007R1 derivative polarized macrophages and treated. MLB007R1 induces cell death and inhibits ovarian cancer cell growth. Treatment of A2780 cells with MLB007R1 induced cell death after 12 hours. Proliferation of A2780 cultures treated with MLB007R1 was analyzed over 12 hours of continuous treatment.
Cells were plated out and 60 µg/ml MLB007R1 treated macrophages were added to the culture medium 12 h after plating out (24 h preincubation period). The percentage of apoptotic cells was determined at the indicated time points by propidium iodide (PI) staining on semipermeabilized cells as previously described. In this assay, apoptotic cells are identified by hypodiploid DNA content resulting from DNA fragmentation. To assess viability, intact cells were harvested, stained with PI, and analyzed for their plasma membrane permeability to PI by flow cytometry. Cell number was determined by interference light microscopy. The ovarian cancer cells (A2780) were incubated with 60µg/ml MLB007R1 concentration treated macrophages. […]

Structure (SMILES) | effect on tumor cells ([1]; control at 60 µg/ml, compared with resveratrol derivative) | decreased HepG2 cell number (HepG2) | cell death ([1]; after 12h) | cell death ([1]; after 24 hours) | cell death ([1]; after 36h) | number of tumor cells (MCF-7, HUVEC, HepG2; 60 µg/ml, after 12 hours, polarized macrophages) | decreased cell number (MCF-7, HUVEC, HepG2; after only 12 hours of incubation) | apoptosis induction (MCF-7 cells; 20 µg/ml (B), 12 hours) | number of apoptotic cells (MCF-7 cells; 40 (C) and 60 (D) µg/ml, 12 hours) | cell death (MCF-7 cells; Diagram B: 20 µg/ml MLB007R1 treated macrophages) [%] | cell death (MCF-7 cells; Diagram C: 20 µg/ml MLB007R1 treated macrophages) [%] | cell death (MCF-7 cells; Diagram D: 60 µg/ml MLB007R1 treated macrophages) [%] | proliferation of A2780 cultures ([2]; 12 hours of continuous treatment) | ovarian cancer cells killed by polarized macrophages ([2]; macrophages incubated in 60µg/ml, 12 h)
Oc1ccc(C=Cc2cc(O)cc(O)c2)cc1 [resveratrol, 3,4',5-trihydroxy-stilbene, reference compound] | significantly higher | approximately 70% | – | – | – | – | – | – | – | – | – | – | – | –
C=COC(=O)COc1ccc(C=Cc2cc(OCC(=O)OC=C)cc(OCC(=O)OC=C)c2)cc1 [MLB007R1, divinyl 2,2'-((5-(4-(2-oxo-2-(vinyloxy)ethoxy)styryl)-1,3-phenylene)bis(oxy))diacetate] | – | – | 70-85% | 85-92% | approximately 96% | dramatic decrease | more than 90% | No to little apoptosis induction | increased the number of apoptotic cells | > 50 | > 65 | > 80 | No further growth occurred | more than 80%
